Source: PMC6270837, “Preparation and Biological Properties of Ring-Substituted Naphthalene-1-Carboxanilides” (Molecules, 2014)
Entries after “also recorded” stand apart in the source; their conditions may differ. Like-named read-outs stand apart in the source and are kept apart here.

Tests used:
[1] = system: Mycobacterium avium subsp. paratuberculosis CIT03; assay: In vitro antimycobacterial evaluation (MIC/IC90, alamarBlue); assay type: cell-based; conditions: for antimycobacterial activity relative to ciprofloxacin / antimycobacterial activity relative to rifampicin: M. avium subsp. paratuberculosis, comparison of MICs; for MIC: Mycobacterium avium
Procedure: The MIC/IC90 value is routinely and widely used in bacterial assays and is a standard detection limit according to the Clinical and Laboratory Standards Institute.
A well-characterized clinical isolate of Mycobacterium avium subsp. paratuberculosis (CIT03) was grown in Middlebrook broth (MB), supplemented with Oleic-Albumin-Dextrose-Catalase supplement (OADC, Becton, Dickinson and Comp., Franklin Lakes, NJ, USA) and mycobactin J (2 µg/mL). Identification of this isolate was performed using biochemical and molecular protocols. At log phase growth, a culture sample (10 mL) was centrifuged at 15,000 rpm/20 min using a bench top centrifuge (Model CR 4-12, Jouan Inc., Winchester, VA, USA). Following removal of the supernatant, the pellet was washed in fresh Middlebrook 7H9GC broth and re-suspended in fresh supplemented MB (10 mL). The turbidity was adjusted to match McFarland standard No. 1 (3 × 10^8 cfu) with MB broth. A further 1:20 dilution of the culture was then performed in MB broth. The antimicrobial susceptibility of the mycobacterial species was investigated in a 96-well plate format. In these experiments, sterile deionized water (300 µL) was added to all outer-perimeter wells of the plates to minimize evaporation of the medium in the test wells during incubation. Each evaluated compound (100 µL) was incubated with the mycobacterial species (100 µL). Dilutions of each compound were prepared in duplicate. For all synthesized compounds, final concentrations ranged from 1,000 µg/mL to 8 µg/mL. All compounds were prepared in DMSO and subsequent dilutions were made in supplemented MB. The plates were sealed with parafilm and incubated at 37 °C for 11 days.
Following incubation, a 10% addition of alamarBlue (AbD Serotec, Kidlington, UK) was mixed into each well and readings at 570 nm and 600 nm were taken, initially for background subtraction and subsequently after 24 h re-incubation. […] For non-interfering compounds, a blue colour in the well was interpreted as an absence of growth and a pink colour was scored as growth. Furthermore percent reduction of alamarBlue was calculated to generate quantitative data on cell viability during exposure to antimycobacterial compounds over a period of 5 days. The formula used to determine percent reduction of alamarBlue has been standardized for colorimetric analysis by Abd Serotec.
The MIC value is routinely and widely used in bacterial assays and is a standard detection limit according to the Clinical and Laboratory Standards Institute.

[2] = system: photosynthetic electron transport (PET) in isolated spinach chloroplasts; assay: Inhibition of photosynthetic electron transport (PET) in isolated spinach chloroplasts; assay type: biochemical, Spinacia oleracea L.; conditions: DCPIP photoreduction
Procedure: The PET-inhibiting activity was expressed by IC50 value, i.e., compound concentration in mol/L causing 50% inhibition of PET.
Chloroplasts were prepared from spinach (Spinacia oleracea L.) according to Masarovicova and Kralova. The inhibition of photosynthetic electron transport (PET) in isolated spinach chloroplasts was determined spectrophotometrically (Genesys 6, Thermo Scientific, USA), using an artificial electron acceptor 2,6-dichlorophenol-indophenol (DCIPP) according to Kralova et al., and the rate of photosynthetic electron transport was monitored as a photoreduction of DCPIP. The measurements were carried out in phosphate buffer (0.02 mol/L, pH 7.2) containing sucrose (0.4 mol/L), MgCl2 (0.005 mol/L) and NaCl (0.015 mol/L). The chlorophyll content was 30 mg/L in these experiments and the samples were irradiated (~100 W/m^2 with 10 cm distance) with a halogen lamp (250 W) using a 4 cm water filter to prevent warming of the samples (suspension temperature 22 °C). The studied compounds were dissolved in DMSO due to their limited water solubility. […] The inhibitory efficiency of the studied compounds was expressed by IC50 values, i.e., by molar concentration of the compounds causing 50% decrease in the oxygen evolution rate relative to the untreated control.

[3] = physchem; conditions: aqueous buffer, kinetic from dmso stock
[4] = system: human monocytic leukemia THP-1 cell line; assay: In vitro cytotoxicity assay (LDH); conditions: for LD50: human, 24 h; for lethal effect / toxicity on THP-1 cells: treatment with 30 μmol/L
Procedure: Human monocytic leukemia THP-1 cells were obtained from the European Collection of Cell Cultures (ECACC, Salisbury, UK; Methods of characterization: DNA Fingerprinting (Multilocus probes) and isoenzyme analysis). These cells were routinely cultured in RPMI 1640 (Lonza, Verviers, Belgium) medium supplemented with 10% fetal bovine serum (FBS, Sigma-Aldrich, St. Louis, MO, USA), 2% L-glutamine, 1% penicillin and streptomycin (Lonza) at 37 °C with 5% CO2. Cells were passaged at approximately one-week intervals. Cells were routinely tested for the absence of mycoplasma (Hoechst 33258 staining method). The tested compounds were dissolved in DMSO (Sigma-Aldrich) and added in five increasing concentrations to the cell suspension in the culture medium. The maximum concentration of DMSO in the assays never exceeded 0.1%. Subsequently, the cells were incubated for 24 h at 37 °C with 5% CO2 to various compound concentrations ranging from […] in RPMI 1640 medium. Cell toxicity was determined using a Cytotoxicity Detection Kit^PLUS Lactate dehydrogenase (LDH) assay kit (Roche Diagnostics, Mannheim, Germany) according to the manufacturer’s instructions, as described previously. For LDH assays, cells were seeded into 96-well plates (5 × 10^4 cells/well in 100 μL culture medium) in triplicate in serum-free RPMI 1640 medium, and measurements at 492 nm wavelength (Synergy 2 Multi-Mode Microplate Reader, BioTek, Winooski, VT, USA) were taken 24 h after the treatment with tested compounds. The median lethal dose values, LD50, were deduced through the production of a dose-response curve. All data were evaluated using GraphPad Prism 5.00 software (GraphPad Software, San Diego, CA, USA).
LDH Test Principle: The LDH activity is determined by a coupled enzymatic reaction, whereby the tetrazolium salt INT is reduced to formazan. An increase in the amount of dead or plasma membrane damaged cells results in an increase of LDH enzyme activity in the culture supernatant. This increase in the amount of enzyme activity in the supernatant directly correlates to the amount of formazan formed during a limited time period.

[5] = Lipophilicity determination by RP-HPLC (capacity factor, log k); assay type: physicochemical; conditions: end-capped C18, isocratic MeOH 60%/H2O 40%
Procedure: Lipophilicity is a property that has a major effect on bioavailability, biotransformation as well as pharmacological activity, because drugs cross biological membranes through passive transport, which strongly depends on their lipophilicity. Lipophilicity of the studied compounds was determined by RP‑HPLC as capacity factor logarithm (log k). The procedure was performed under isocratic conditions with methanol as an organic modifier in the mobile phase using an end-capped non-polar C18 stationary RP column. The results of ring-substituted naphthalene-1-carboxanilides 1–8c are shown in Table 1 and illustrated in Figure 1. […] Lipophilicity was also calculated as log P using ACD/Percepta ver. 2012 (Advanced Chemistry Development, Inc., Toronto, ON, Canada).
A HPLC system Agilent 1200 equipped with DAD detector (Agilent, USA) was used. A chromatographic column Symmetry® C18 5 μm, 4.6 × 250 mm, Part No. WAT054275 (Waters Corp., Milford, MA, USA) was used. The HPLC separation process was monitored and evaluated by EZChrom Elite software ver. 3.3.2 (Agilent, USA). Isocratic elution by a mixture of MeOH p.a. (60%) and H2O-HPLC Mili-Q grade (40%) as a mobile phase was used. The total flow of the column was 1.0 mL/min, injection 20 μL, column temperature 40 °C, and sample temperature 10 °C. The detection wavelength 210 nm was chosen. The KI methanolic solution was used for the dead time (tD) determination. Retention times (tR) were measured in minutes. The capacity factors k were calculated according to formula k = (tR − tD)/tD, where tR is the retention time of the solute, whereas tD denotes the dead time obtained using an unretained analyte. Log k, calculated from the capacity factor k, is used as the lipophilicity index converted to log P scale.

[6] = system: human monocytic leukemia THP-1 cell line; conditions: THP-1 cells; assessed in this line formerly; cited from earlier work
[7] = system: M. avium subsp. paratuberculosis; assay: MTT assay on mycobacteria; assay type: cell-based, Mycobacterium avium subsp. paratuberculosis; conditions: lowest tested concentration 8 µg/mL (ca. 30 µmol/L), four hours of incubation
Procedure: Additionally, a standard MTT assay was performed on these same compounds. The MTT assay is a well-characterized method of assessing cell growth through measurement of respiration.
For the MTT assay, the same 96-well plate set up and incubation conditions listed above were used. After the incubation period, a 10% addition of MTT reagent was mixed into each well and incubated at 37 °C for 4 h. The reagent and media were then aspirated from the wells to which 50 µL DMSO was then added and plates were read at 550 nm.

[8] = 264 h, clinical isolate CIT03, 11 days at 37 °C, alamarBlue, MIC = 90% or greater reduction of growth, read-out: MAP MIC/IC90
[9] = clinical isolate CIT03, read-out: MIC
[10] = clinical isolate CIT03, 11 days at 37 °C, alamarBlue, MIC = 90% or greater reduction of growth

Compound | antimycobacterial activity relative to ciprofloxacin [1] | antimycobacterial activity relative to rifampicin [1] | MIC [1, 8] | IC50 [2] | solubility [3] | LD50 [4] | lethal effect / toxicity on THP-1 cells [4] | log k [5] | LD50 [6] | MIC [1, 9] | MAP MIC/IC90 [1, 10] | reduction in activity (MTT) [7]
Cc1cccc(NC(=O)c2cccc3ccccc23)c1 [Compound 3b, N-(3-Methylphenyl)naphthalene-1-carboxamide] | three-fold higher | two-fold higher | 57 µM | 136 µM | ≤ 30 µM | >30 µmol/L | did not lead to significant lethal effect; also recorded: insignificant toxicity | 0.7624 | – | – | – | –
CC[C@@]1(O)C(=O)OCc2c1cc1n(c2=O)Cc2cc3ccccc3nc2-1 [camptothecin] | – | – | – | – | – | – | – | – | 0.16 ± 0.07 µmol/L | – | – | –
O=C(Nc1cccc(F)c1)c1cccc2ccccc12 [Compound 4b, N-(3-Fluorophenyl)naphthalene-1-carboxamide] | three-fold higher | two-fold higher | 57 µM | 131 µM | ≤ 30 µM | >30 µmol/L | did not lead to significant lethal effect; also recorded: insignificant toxicity | 0.7204 | – | 15 µg/mL | 57 µM | –
COc1cccc(NC(=O)c2cccc3ccccc23)c1 [Compound 2b, N-(3-Methoxyphenyl)naphthalene-1-carboxamide] | three-fold higher | two-fold higher | 54 µM | – | ≤ 30 µM | >30 µmol/L | did not lead to significant lethal effect; also recorded: insignificant toxicity | 0.6087 | – | 15 µg/mL | 54 µM | more than 80%
COc1ccccc1NC(=O)c1cccc2ccccc12 [Compound 2a, N-(2-Methoxyphenyl)naphthalene-1-carboxamide] | three-fold higher | two-fold higher | 54 µM | – | ≤ 30 µM | >30 µmol/L | did not lead to significant lethal effect; also recorded: insignificant toxicity | 0.8013 | – | – | – | –
